# Measured values as given in patent US4268678A, “4-(Arylaliphatic)isoxazoles” (Sterling Drug Inc., priority 1979, dated 1981).
# Test system: herpes simplex virus type 2
# Assay: in vitro antiviral testing against herpes simplex virus type 2 (MIC by standard serial dilution)
# Format: cell-based
# Settings: Human alphaherpesvirus 2, herpes simplex virus type 2 (herpes 2), read-out: minimal inhibitory concentration (MIC)
# Experimental: They are useful in combatting viruses present on inanimate surfaces as well as viral infections in animal organisms. […] The MIC values were determined by standard serial dilution procedures.
row,MIC [µg/mL],Compound
1,6,"CCc1noc(CC)c1CCCCCCOc1ccc(OC)cc1Cl [Example 1, 4-[6-(2-Chloro-4-methoxyphenoxy)hexyl]-3,5-diethylisoxazole]"
2,1.5,"CCc1noc(CC)c1Cc1ccc(C)cc1 [Example 2, 3,5-Diethyl-4-[(4-methylphenyl)methyl]isoxazole]"
3,25,"CCc1noc(CC)c1Cc1ccc(OC)cc1 [Example 3, 3,5-Diethyl-4-[(4-methoxyphenyl)methyl]isoxazole]"
4,12,"CCc1noc(CC)c1Cc1ccc(OC)cc1Cl [Example 4, 4-[(2-Chloro-4-methoxyphenyl)methyl]-3,5-diethylisoxazole]"
5,3,"CCc1noc(CC)c1CCCCCCOc1ccc(OC)cc1[N+](=O)[O-] [Example 5, 3,5-Diethyl-4-[6-(4-methoxy-2-nitrophenoxy)hexyl]isoxazole]"
6,12,"CCc1noc(CC)c1CCCCCCOc1ccc(Br)cc1 [Example 6, 4-[6-(4-Bromophenoxy)hexyl]-3,5-diethylisoxazole]"
7,6,"CCc1noc(CC)c1CCCCOc1ccc(OC)cc1Cl [Example 7, 4-[4-(2-Chloro-4-methoxyphenoxy)butyl]-3,5-diethylisoxazole]"
8,> 25,"CCc1noc(CC)c1CCCCCCCOc1ccc(OC)cc1Cl [Example 8, 4-[7-(2-Chloro-4-methoxyphenoxy)heptyl]-3,5-diethylisoxazole]"
